Structures can show the parent of a compound that is named as a salt.
system: human GABA α1β3β2 receptors; experiment: GABAa, 3H-muscimol binding assay; conditions: activity at 10 μM as percentage of activity of control compound P18 at 10 μM (increase of 3H-muscimol binding)
Method: Membranes from recombinant Ltk cells expressing human GABA α1β3β2 receptors were suspended in an ice-cold solution of 100 mM KCl, 10 mM KH2PO4, adjusted to pH=7.4 with 1 M KOH. Tritiated muscimol (PerkinElmer, Wellesley, Mass.) at a concentration of 2 nM, and serial five-fold dilutions of test compounds at 10 μM, 2.0 μM, 400 nM, 80 nM, 16 nM, 3.2 nM, 0.64 nM and 0.13 nM were mixed in 96-well plates containing 200 μL of membrane suspension. Cold muscimol and compound P18 were used as negative and positive controls respectively. The assay mixture was incubated at 4° C. for 2 hours, then harvested on GF/C filter plates and washed with ice-cold 50 mM Tris-Ci buffer. The filter plates were dried and counted in a Wallac MicroBeta® Trilux detector (Model 1450-030; PerkinElmer, Wellesley, Mass.), and the data were downloaded and analyzed using Prism 3.0. The activity of compound P18 at 10 μM was used as reference for the test compounds, and it was expressed as increasing ^3H-muscimol binding by 100%, whereas cold muscimol at 2 μM antagonized ^3H-muscimol binding by 100%. The tested compound's activity at 10 μM was expressed as a percentage of compound P18's activity at 10 μM.
As a reference, the parent compound (the compound not substituted with a R^4 heteroaryl, such as pyrazole or 1,2,4-oxadiazole, as indicated below) is also shown with its Gamma Amino Butyric Acid (GABA) Receptor activity. […] As a result, the compounds of the present invention in which R^4 is a heteroaryl, such as pyrazole or 1,2,4-oxadiazole, have the unexpected benefits of minimizing off target activity at the GABA receptor.
Note: % GABA is defined as the GABA activity of the indicated compound expressed as a percentage of the activity of control compound P18. NA=data not available.

SMILES	% GABA Example
CC(=O)Nc1c(C(=O)C(C)(C)C)oc2nc(-c3ccc(-c4cc[nH]n4)cc3Cl)c(-c3ccc(Cl)cc3)cc12 [Example 19, N-[5-(4-Chlorophenyl)-6-[2-chloro-4-(1H-pyrazol-3-yl)phenyl]-2-(2,2-dimethylpropanoyl)furo[2,3-b]pyridin-3-yl]acetamide]	16%
CC(C)(C)C(=O)c1oc2nc(-c3ccc(-c4cn[nH]c4)cc3Cl)c(-c3ccc(Cl)cc3)cc2c1NC(=O)CO [Example 32, N-[5-(4-Chlorophenyl)-6-[2-chloro-4-(1H-pyrazol-4-yl)phenyl]-2-(2,2-dimethylpropanoyl)furo[2,3-b]pyridin-3-yl]-2-hydroxyacetamide]	29%
CCc1c(C(=O)C(C)(C)O)oc2nc(-c3ccc(-c4c[nH]nc4C)cc3Cl)c(-c3ccc(Cl)cc3)cc12 [Example 35, 1-[6-[2-Chloro-4-(3-methyl-1H-pyrazol-4-yl)phenyl]-5-(4-chlorophenyl)-3-ethylfuro[2,3-b]pyridin-2-yl]-2-hydroxy-2-methylpropan-1-one]	59%
CC(=O)Nc1c(C(=O)C(C)C)oc2nc(-c3ccc(-c4c[nH]nc4C)cc3Cl)c(-c3ccc(Cl)cc3)cc12 [Example 33, N-[6-[2-Chloro-4-(3-methyl-1H-pyrazol-4-yl)phenyl]-5-(4-chlorophenyl)-2-isobutyrylfuro[2,3-b]pyridin-3-yl]acetamide]	34%
Cc1n[nH]cc1-c1ccc(-c2nc3oc(C(=O)C(C)(C)O)c(C)c3cc2-c2ccc(Cl)cc2)c(Cl)c1 [Example 34, 1-[6-[2-Chloro-4-(3-methyl-1H-pyrazol-4-yl)phenyl]-5-(4-chlorophenyl)-3-methylfuro[2,3-b]pyridin-2-yl]-2-hydroxy-2-methylpropan-1-one]	29%
CCC(=O)c1oc2nc(-c3ccc(-c4cn[nH]c4)cc3Cl)c(-c3ccc(Cl)cc3)cc2c1NC(=O)CO [Example 17, N-{5-(4-Chlorophenyl)-6-[2-chloro-4-(1H-pyrazol-4-yl)phenyl]-2-propionylfuro[2,3-b]pyridin-3-yl}-2-hydroxyacetamidetrifluoroacetate (salt)]	36%
CC(=O)Nc1c(C(=O)C(C)(C)C)oc2nc(-c3ccc(-c4cn[nH]c4)cc3Cl)c(-c3ccc(Cl)cc3)cc12 [Example 4, N-[5-(4-Chlorophenyl)-6-[2-chloro-4-(1H-pyrazol-4-yl)phenyl]-2-(2,2-dimethylpropanoyl)furo[2,3-b]pyridin-3-yl]acetamide]	12%
CC(C)C(=O)Nc1c(C(=O)C(C)(C)C)oc2nc(-c3ccc(-c4cn[nH]c4)cc3Cl)c(-c3ccc(Cl)cc3)cc12 [Example 6, N-[5-(4-Chlorophenyl)-6-[2-chloro-4-(1H-pyrazol-4-yl)phenyl]-2-(2,2-dimethylpropanoyl)furo[2,3-b]pyridin-3-yl]-2-methylpropanamide]	3%
CCC(=O)c1oc2nc(-c3ccc(-c4cn[nH]c4)cc3Cl)c(-c3ccc(Cl)cc3)cc2c1N [Example 8, 1-{3-Amino-5-(4-chlorophenyl)-6-[2-chloro-4-(1H-pyrazol-4-yl)phenyl]furo[2,3-b]pyridin-2-yl}propan-1-one]	26%
CC(C)(O)C(=O)c1oc2nc(-c3ccc(-c4cn[nH]c4)cc3Cl)c(-c3ccc(Cl)cc3)cc2c1NC(=O)CO [Example 31, N-[5-(4-Chlorophenyl)-6-[2-chloro-4-(1H-pyrazol-4-yl)phenyl]-2-(2-hydroxy-2-methylpropanoyl)-furo[2,3-b]pyridin-3-yl]-2-hydroxyacetamide]	30%
Cc1c(C(=O)C(C)(C)O)oc2nc(-c3ccc(-c4cn[nH]c4)cc3Cl)c(-c3ccc(Cl)cc3)cc12 [Example 9, 1-{5-(4-Chlorophenyl)-6-[2-chloro-4-(1H-pyrazol-4-yl)phenyl]-3-methylfuro[2,3-b]pyridin-2-yl}-2-hydroxy-2-methylpropan-1-one]	30%
CC(=O)Nc1c(C(=O)C(C)(C)O)oc2nc(-c3ccc(-c4cc[nH]n4)cc3Cl)c(-c3ccc(Cl)cc3)cc12 [Example 18, N-[5-(4-Chlorophenyl)-6-[2-chloro-4-(1H-pyrazol-3-yl)phenyl]-2-(2-hydroxy-2-methylpropanoyl)furo[2,3-b]pyridin-3-yl]acetamide]	26%
CC(=O)n1cc(-c2ccc(-c3nc4oc(C(=O)C(C)(C)O)c(N)c4cc3-c3ccc(Cl)cc3)c(Cl)c2)cn1 [Example 30, 1-[6-[4-(1-Acetyl-1H-pirazol-4-yl)-2-chlorophenyl]-3-amino-5-(4-chlorophenyl)furo[2,3-b]pyridin-2-yl]-2-hydroxy-2-methylpropan-1-one]	19%
CC(C)(O)C(=O)c1oc2nc(-c3ccc(-c4cc[nH]n4)cc3Cl)c(-c3ccc(Cl)cc3)cc2c1N [Example 21, 1-{3-Amino-5-(4-chlorophenyl)-6-[2-chloro-4-(1H-pyrazol-3-yl)phenyl]furo-[2,3-b]pyridin-2-yl}-2-hydroxy-2-methylpropan-1-one]	27%
CCC(=O)c1oc2nc(-c3ccc(-c4cc[nH]n4)cc3Cl)c(-c3ccc(Cl)cc3)cc2c1C [Example 26, 1-{5-(4-Chlorophenyl)-6-[2-chloro-4-(1H-pyrazol-3-yl)phenyl]-3-methylfuro[2,3-b]pyridin-2-yl}propan-1-one]	28%
Cc1c(C(=O)CC(C)C)oc2nc(-c3ccc(-c4cn[nH]c4)cc3Cl)c(-c3ccc(Cl)cc3)cc12 [Example 12, 1-{5-(4-Chlorophenyl)-6-[2-chloro-4-(1H-pyrazol-4-yl)phenyl]-3-methylfuro[2,3-b]pyridin-2-yl}-3-methylbutan-1-one]	51%
CC(C)(C)C(=O)c1oc2nc(-c3ccc(-c4cc[nH]n4)cc3Cl)c(-c3ccc(Cl)cc3)cc2c1C(N)=O [Example 20, 5-(4-Chlorophenyl)-6-[2-chloro-4-(1H-pyrazol-3-yl)phenyl]-2-(2,2-dimethylpropanoyl)furo[2,3-b]pyridine-3-carboxamide]	13%
Cc1c(C(=O)C(C)C)oc2nc(-c3ccc(-c4cc[nH]n4)cc3Cl)c(-c3ccc(Cl)cc3)cc12 [Example 25, 1-{5-(4-Chlorophenyl)-6-[2-chloro-4-(1H-pyrazol-3-yl)phenyl]-3-methylfuro[2,3-b]pyridin-2-yl}-2-methylpropan-1-one]	35%

same assay, conditions: parent compound without R^4 heteroaryl; activity at 10 μM as percentage of activity of control compound P18 at 10 μM

SMILES	% GABA Parent
CC(C)(O)C(=O)c1oc2nc(-c3ccccc3Cl)c(-c3ccc(Cl)cc3)cc2c1NC(=O)CO [Example P18, reference compound]	100%
CC(C)(C)C(=O)c1oc2nc(-c3ccccc3Cl)c(-c3ccc(Cl)cc3)cc2c1N [Example P5, reference compound]	33%
Cc1c(C(=O)C(C)C)oc2nc(-c3ccccc3Cl)c(-c3ccc(Cl)cc3)cc12 [Example P14, reference compound]	51%
Cc1c(C(=O)CC(C)C)oc2nc(-c3ccccc3Cl)c(-c3ccc(Cl)cc3)cc12 [Example P10, reference compound]	59%

More lines, now with the values ahead:

% GABA Parent	SMILES
25%	Cc1c(C(=O)C(C)(C)C)oc2nc(-c3ccccc3Cl)c(-c3ccc(Cl)cc3)cc12 [Example P8, reference compound]
100%	CC(C)C(=O)c1oc2nc(-c3ccccc3Cl)c(-c3ccc(Cl)cc3)cc2c1N1CCCC1=O [Example P17, reference compound]
75%	Cc1c(C(=O)C(C)(C)O)oc2nc(-c3ccccc3Cl)c(-c3ccc(Cl)cc3)cc12 [Example P7, reference compound]
50%	CC(C)(C)C(=O)c1oc2nc(-c3ccccc3Cl)c(-c3ccc(Cl)cc3)cc2c1CO [Example P20, reference compound]
90%	CC(C)(C)C(=O)c1oc2nc(-c3ccccc3Cl)c(-c3ccc(Cl)cc3)cc2c1NC(=O)CO [Example P16, reference compound]
76%	CCC(=O)c1oc2nc(-c3ccccc3Cl)c(-c3ccc(Cl)cc3)cc2c1NC(C)=O [Example P4, reference compound]
62%	CC(=O)c1c(C(=O)C(C)(C)C)oc2nc(-c3ccccc3Cl)c(-c3ccc(Cl)cc3)cc12 [Example P21, reference compound]
29%	Cc1c(S(=O)(=O)C(C)(C)C)oc2nc(-c3ccccc3Cl)c(-c3ccc(Cl)cc3)cc12 [Example P9, reference compound]
96%	CCc1c(C(=O)C(C)(C)O)oc2nc(-c3ccccc3Cl)c(-c3ccc(Cl)cc3)cc12 [Example P19, reference compound]
99%	CC(=O)Nc1c(C(=O)C(C)(C)O)oc2nc(-c3ccccc3Cl)c(-c3ccc(Cl)cc3)cc12 [Example P1, reference compound]
40%	CC(C)(C)C(=O)c1oc2nc(-c3ccccc3Cl)c(-c3ccc(Cl)cc3)cc2c1C(N)=O [Example P12, reference compound]
